Test results as given in paper PMC4286029 (Inflammation Research, 2014).
Counter-ions that a name gives are not always drawn.

Key:
[1] = system: rat collagen-induced arthritis model; test: Collagen-induced arthritis in rats; assay type: in vivo, Lewis rats; conditions: MTX 0.3 mg/kg; for effect on paw swelling / arthritis symptoms, therapeutic administration: oral once daily from day 15, JTE-052 0.1, 1, 10 mg/kg
Description: CIA was induced in rats as previously described with some modifications. Briefly, type II collagen (Collagen Research Center, Saitama, Japan) was dissolved in 0.01 M acetic acid at 2 mg/mL, and the solution was emulsified in an equal volume of Freund’s incomplete adjuvant (Difco Laboratories, Detroit, MI). Lewis rats were immunized with 1 mL of the emulsion (1 mg of type II collagen) via ten intradermal injections on the back under anesthesia. The rats were then challenged with 0.2 mL of the emulsion injected into the base of the tail on day 8 under anesthesia. The test drugs were given orally once daily from day 1 to day 21 (preventive administration) or from day 15 to day 28 (therapeutic administration). After arthritis induction, the hind paw volume was measured by a water displacement method using a plethysmometer (Muromachi Kikai Co. Ltd., Tokyo, Japan). On day 22 or day 29, the rats were euthanized, and their hind paws were excised and X-rayed or processed for histological evaluation. Radiographs of the right hindlimbs were taken using a microfocal cone-beam X-ray CT scanner (MCT-CB100MF; Hitachi Medical Corporation, Tokyo, Japan). The severity of bone destruction was scored on a 3-point scale ranging from 0 to 2 for the following five joints: second metatarsal—second intertarsal joint, third metatarsal—third intertarsal joint, talus—central intertarsal joint, calcaneus—fourth intertarsal joint, and astragalo—tibial joint. For histological analysis, the formalin-fixed left hindlimbs were sectioned and stained with hematoxylin and eosin. The histology of the tarsal joints was evaluated by assessing the following parameters defined in the preliminary examination: inflammatory cell infiltration, synovial cell hyperplasia, cartilage destruction, and bone destruction. The severity of each histological change was scored on a 5-point scale ranging from 0 to 4. (Score 0: normal; Score 1: minimal, solitary (and very small) lesion; Score 2: slight, focal (and small) lesion; Score 3: moderate, scattered lesion; and Score 4: severe, extensive lesion).
(§1) . The hind paw volume (a) and body weight (b) were measured periodically. Images of hematoxylin and eosin staining (c) and radiographs of hindlimbs (e) are shown. Histological change (d) and radiographical change (f) were scored. The results are expressed as mean ± SD. ^# p < 0.05, ^## p < 0.01, versus vehicle by the Steel test
as §1, with “SD. *p < 0.05, **p < 0.01, versus vehicle by Dunnett’s test.” for “SD.”

[2] = system: IL-2 signaling (JAK1/JAK3), Stat5 phosphorylation in hPBMCs; test: cells; conditions: Homo sapiens, 0.25 h, read-out: IC50, IL-2 cytokine signaling (JAK1/JAK3)
Description: (§2) hPBMCs (3 × 10^6 cells/tube) were incubated with a test compound for 30 min at 37 °C, and then treated with IL-2 (100 ng/mL), IL-6 (100 ng/mL), IL-23 (100 ng/mL), IFN-α (100 ng/mL), or GM-CSF (1 ng/mL) for an additional 15 min. To terminate the stimulation, the cells were fixed with Fixation Buffer (BD Biosciences) for 10 min at 37 °C. The fixed cells were incubated with Perm Buffer II (BD Biosciences) for 30 min on ice and then incubated with fluorochrome-labeled anti-CD3, anti-CD4, or anti-phospho-Stat antibodies for 30 min at room temperature. The cytokine-induced Stat phosphorylation was analyzed and quantified using a Cytomics FC500 (Beckman Coulter Inc., Brea, CA). In the case of IL-23 stimulation, hPBMCs were precultured with 10 μg/mL phytohemagglutinin (PHA)-M (Sigma-Aldrich Co.) for 3 days to enhance their response to IL-23.
(§3) The phosphorylation levels of Stat5 (IL-2 and GM-CSF), Stat3 (IL-6 and IL-23), or Stat1 (IFN-α) in CD3^+CD4^+ cells (IL-2, IL-23, and IFN-α) or CD3^-CD4^+ cells (IL-6 and GM-CSF) were analyzed by flow cytometry. Data are presented as percentages of mean fluorescence intensity relative to vehicle (100 %) and non-stimulated control cells (0 %). Values are mean ± SEM. Three independent experiments were performed

[3] = system: IFN-α signaling (JAK1/Tyk2), Stat1 phosphorylation in hPBMCs; test: cells; conditions: Homo sapiens, 0.25 h, read-out: IC50, IFN-α cytokine signaling (JAK1/Tyk2)
Description: as §2, §3

[4] = system: IL-2-induced IFN-γ production; test: IL-2-induced IFN-γ production in mice; assay type: in vivo, DBA/1J mice; conditions: Mus musculus, po
Description: DBA/1J mice were dosed once via oral gavage with compounds. At 1 or 6 h after compound administration, the mice were injected intraperitoneally with 2 μg of recombinant mouse IL-2 and 10 μg of biotinylated anti-mouse IFN-γ capture antibody. After 6 h, the mice were euthanized, and blood was collected. Serum IFN-γ was quantified using a Mouse IFN-γ In Vivo Capture Assay Set (BD Biosciences).
After 1 or 6 h, they were injected with IL-2 and anti-mouse IFN-γ capture antibody. At 6 h after the injection, blood samples were collected, and the serum IFN-γ levels were measured.

[5] = system: kinases in KinaseProfiler; test: KinaseProfiler panel as a whole (selectivity for other kinases); assay type: biochemical; conditions: concentration of 1,000 nM
Description: […]; The selectivity of JTE-052 for other kinases was assessed using KinaseProfiler™ (Millipore Co. Ltd.). […].

[6] = system: rat collagen-induced arthritis model; design: method as in PMID 15683847; conditions: cited from earlier work

CN(Cc1cnc2nc(N)nc(N)c2n1)c1ccc(C(=O)N[C@@H](CCC(=O)O)C(=O)O)cc1 [MTX, Methotrexate hydrate]
effect on hind paw swelling and joint inflammation, preventive administration ([1]; oral once daily from day 1, JTE-052 0.1, 1, 10 mg/kg): significantly inhibited these symptoms | effect on paw swelling / arthritis symptoms, therapeutic administration [1]: did not attenuate all of these symptoms | effect on paw swelling / arthritis symptoms, therapeutic administration ([1]; listed as methotrexate): ineffective

N#CC[C@H](C1CCCC1)n1cc(-c2ncnc3[nH]ccc23)cn1 [Ruxolitinib, Ruxolitinib phosphate, reference compound]
IC50 [2]: 13 nM | IC50 [3]: 1.1 nM

C[C@@H]1CCN(C(=O)CC#N)C[C@@H]1N(C)c1ncnc2[nH]ccc12 [Tofacitinib, tofacitinib citrate, reference compound]
ED50 ([4]; dosed 1 h prior to IL-2 injection): 1.1 mg/kg | ED50 ([4]; dosed 6 h prior to IL-2 injection): 13 mg/kg | inhibition of other kinases in KinaseProfiler [5]: did not inhibit any of the kinases

C=CC[C@@H]1/C=C(\C)C[C@H](C)C[C@H](OC)[C@H]2O[C@@](O)(C(=O)C(=O)N3CCCC[C@H]3C(=O)O[C@H](/C(C)=C/[C@@H]3CC[C@@H](O)[C@H](OC)C3)[C@H](C)[C@@H](O)CC1=O)[C@H](C)C[C@@H]2OC [tacrolimus]
effect in rat collagen-induced arthritis model, administration after the onset of arthritis [6]: had no inhibitory effects
